Data as given in article PMC3573846 (International journal of pharmaceutics, 2012).

Experiments:
[1] = system: P-gp and Bcrp1 at the mouse BBB; details: zosuquidar 25 mg/kg or Ko143 10 mg/kg i.v. 30 min prior to pazopanib 5 mg/kg i.v.; 60 min post dose
P-gp at BBB = details: mouse, in vivo; cited from earlier work
[2] = molecular target: P-gp (MDR1), MDCKII-MDR1 transfected cells (Homo sapiens, UniProt P08183); assay: Cellular accumulation of pazopanib in MDCKII-MDR1 vs WT cells; format: in vitro ADME; details: 0.1 μM pazopanib, 60 min, no inhibitor
[3] = molecular target: T1, Bcrp1, MDCKII-Bcrp1 transfected cells (Mus musculus, UniProt Q7TMS5); assay: Cellular accumulation of pazopanib in MDCKII-Bcrp1 vs WT cells; format: in vitro ADME, murine; details: 0.1 μM pazopanib, 60 min, no inhibitor
T1 sequence (Q7TMS5 1-657): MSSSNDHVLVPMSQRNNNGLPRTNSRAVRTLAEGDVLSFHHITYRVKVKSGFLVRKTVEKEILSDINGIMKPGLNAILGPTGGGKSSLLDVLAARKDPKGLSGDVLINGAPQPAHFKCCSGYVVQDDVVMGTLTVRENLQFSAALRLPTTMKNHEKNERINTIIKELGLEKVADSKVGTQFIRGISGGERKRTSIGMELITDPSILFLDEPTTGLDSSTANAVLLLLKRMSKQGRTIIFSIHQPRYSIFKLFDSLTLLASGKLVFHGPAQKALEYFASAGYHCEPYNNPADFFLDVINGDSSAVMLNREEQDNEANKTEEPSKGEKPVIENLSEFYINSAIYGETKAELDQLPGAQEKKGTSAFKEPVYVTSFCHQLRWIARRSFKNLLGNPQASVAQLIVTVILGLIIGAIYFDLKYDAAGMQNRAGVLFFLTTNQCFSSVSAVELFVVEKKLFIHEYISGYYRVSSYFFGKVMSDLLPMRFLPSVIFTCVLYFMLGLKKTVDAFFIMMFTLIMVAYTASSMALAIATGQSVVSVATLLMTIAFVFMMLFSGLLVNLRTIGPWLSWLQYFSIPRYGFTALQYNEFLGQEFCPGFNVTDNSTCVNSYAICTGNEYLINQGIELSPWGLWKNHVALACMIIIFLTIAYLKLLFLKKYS

[4] = Bi-directional transport across MDCK-WT monolayers; format: in vitro ADME, canine; details: dog
P-gp (MDR1) = P-gp (MDR1) (Homo sapiens, UniProt P08183); assay: Bi-directional transport across MDCK-MDR1 monolayers; format: in vitro ADME; details: dog
[5] = molecular target: P-gp (MDR1), MDCK-MDR1 cell monolayers (Homo sapiens, UniProt P08183); assay: as above; format: in vitro ADME
Bcrp1 = molecular target: T2, Bcrp1 (Mus musculus, UniProt Q7TMS5); assay: Bi-directional transport across MDCK-Bcrp1 monolayers; format: in vitro ADME, murine; details: mouse, Efflux ratio, MDCK-Bcrp1, 5 μM pazopanib, no inhibitor
T2 sequence (Q7TMS5 1-657): T1 sequence (Q7TMS5 1-657)

Bcrp1 (murine) = molecular target: T3, Bcrp1 (murine) (Mus musculus, UniProt Q7TMS5); assay: as above; format: in vitro ADME; details: dog
T3 sequence (Q7TMS5 1-657): T1 sequence (Q7TMS5 1-657)

[6] = molecular target: T4, Bcrp1, MDCK-Bcrp1 cell monolayers (Mus musculus, UniProt Q7TMS5); assay: as above; format: in vitro ADME, murine
T4 sequence (Q7TMS5 1-657): T1 sequence (Q7TMS5 1-657)

in vivo = details: male, mouse, 5 mg/kg
[7] = Brain accumulation and plasma pharmacokinetics of pazopanib in FVB mice; details: for half-life: 5 mg/kg
[8] = in vitro MDCKII cell monolayers
[9] = brain, pazopanib 5 mg/kg i.v. + elacridar (GF120918) 10 mg/kg
[10] = brain, pazopanib alone, 5 mg/kg i.v. bolus
[11] = plasma, pazopanib 5 mg/kg i.v. + elacridar (GF120918) 10 mg/kg
[12] = plasma, pazopanib alone, 5 mg/kg i.v. bolus

Sequence of P-gp (MDR1) (P08183 whole entry): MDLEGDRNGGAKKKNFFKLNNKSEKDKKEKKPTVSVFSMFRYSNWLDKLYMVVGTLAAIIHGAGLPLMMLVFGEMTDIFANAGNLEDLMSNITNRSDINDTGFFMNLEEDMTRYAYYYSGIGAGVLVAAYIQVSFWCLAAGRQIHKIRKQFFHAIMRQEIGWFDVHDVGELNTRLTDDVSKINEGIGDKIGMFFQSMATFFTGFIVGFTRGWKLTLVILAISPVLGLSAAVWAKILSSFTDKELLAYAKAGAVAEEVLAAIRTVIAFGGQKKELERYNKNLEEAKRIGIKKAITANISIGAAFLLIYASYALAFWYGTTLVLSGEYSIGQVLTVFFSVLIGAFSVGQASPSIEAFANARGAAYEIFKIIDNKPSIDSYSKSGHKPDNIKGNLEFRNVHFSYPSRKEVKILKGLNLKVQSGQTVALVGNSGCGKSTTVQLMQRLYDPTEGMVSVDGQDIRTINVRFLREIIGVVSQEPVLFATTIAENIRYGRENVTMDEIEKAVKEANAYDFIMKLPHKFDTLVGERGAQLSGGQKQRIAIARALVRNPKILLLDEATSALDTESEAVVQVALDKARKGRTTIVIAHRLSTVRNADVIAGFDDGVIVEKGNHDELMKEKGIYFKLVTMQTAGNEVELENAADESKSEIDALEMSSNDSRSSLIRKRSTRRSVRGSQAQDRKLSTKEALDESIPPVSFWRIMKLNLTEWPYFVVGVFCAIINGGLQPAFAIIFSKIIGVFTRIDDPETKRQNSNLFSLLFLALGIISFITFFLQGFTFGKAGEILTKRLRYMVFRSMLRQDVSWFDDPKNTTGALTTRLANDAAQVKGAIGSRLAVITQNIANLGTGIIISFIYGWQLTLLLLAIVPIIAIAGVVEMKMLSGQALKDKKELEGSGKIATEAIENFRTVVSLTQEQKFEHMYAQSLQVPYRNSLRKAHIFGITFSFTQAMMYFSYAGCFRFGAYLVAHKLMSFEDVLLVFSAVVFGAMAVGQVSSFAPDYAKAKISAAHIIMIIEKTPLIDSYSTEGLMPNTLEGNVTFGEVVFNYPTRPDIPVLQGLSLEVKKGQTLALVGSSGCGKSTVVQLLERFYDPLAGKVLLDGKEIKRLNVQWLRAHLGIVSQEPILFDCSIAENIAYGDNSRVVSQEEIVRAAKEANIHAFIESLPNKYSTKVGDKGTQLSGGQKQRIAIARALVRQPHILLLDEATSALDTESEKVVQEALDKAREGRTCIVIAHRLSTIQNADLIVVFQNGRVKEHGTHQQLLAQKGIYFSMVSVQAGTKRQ
Sequence of P-gp (MDR1), MDCK-MDR1 cell monolayers (P08183 whole entry): as above
Sequence of P-gp (MDR1), MDCKII-MDR1 transfected cells (P08183 whole entry): as above

Question: For COc1ccc2c3c([nH]c2c1)[C@H](CC(C)C)N1C(=O)[C@H](CCC(=O)OC(C)(C)C)NC(=O)[C@@H]1C3 [Ko143], which “Effect on pazopanib brain concentration” value [1] is on record?
Answer: did not significantly alter

Question: Which results are given for O[C@@H](COc1cccc2ncccc12)CN1CCN([C@@H]2c3ccccc3[C@@H]3[C@H](c4ccccc42)C3(F)F)CC1 [zosuquidar]?
Answer: Enhanced brain penetration of paclitaxel upon co-administration (P-gp at BBB): ~ 5.6 fold; Effect on pazopanib brain concentration [1]: did not significantly alter

Question: What does the source list for Cc1ccc(Nc2nccc(N(C)c3ccc4c(C)n(C)nc4c3)n2)cc1S(N)(=O)=O [Pazopanib]?
Answer: Pazopanib accumulation in MDR1 overexpressing cells relative to WT cells [2]: 60 % of WT cells; Pazopanib accumulation in Bcrp1 overexpressing cells relative to WT cells [3]: approximately 5 % of WT cells; Papp A→B at 240 min, 5 μM [4]: 2.92 ± 0.33 ×10⁻⁶ cm/s; Papp B→A at 240 min, 5 μM [4]: 3.1 ± 0.22 ×10⁻⁶ cm/s; efflux ratio at 240 min, 5 μM [4]: 1.06; Papp A→B at 240 min, 5 μM (P-gp (MDR1); MDCK-MDR1): 3.73 ± 0.17 ×10⁻⁶ cm/s; Papp B→A at 240 min, 5 μM (P-gp (MDR1); MDCK-MDR1): 6.3 ± 0.56 ×10⁻⁶ cm/s; efflux ratio at 240 min, 5 μM (P-gp (MDR1); MDCK-MDR1, Efflux ratio, MDCK-MDR1, 5 μM pazopanib, no inhibitor): 1.7; Efflux ratio ([5]; MDCK-MDR1, 5 μM pazopanib + 1 μM zosuquidar (LY)): 1.07; Substrate classification for P-gp [5, 8]: moderate substrate; efflux ratio at 240 min, 5 μM (Bcrp1): 47; Papp A→B at 240 min, 5 μM (Bcrp1 (murine)): 0.2 ± 0.04 ×10⁻⁶ cm/s; Papp B→A at 240 min, 5 μM (Bcrp1 (murine)): 9.71 ± 0.09 ×10⁻⁶ cm/s; efflux ratio at 240 min, 5 μM (Bcrp1 (murine); with Ko143 200 nM, Efflux ratio, MDCK-Bcrp1, 5 μM pazopanib + 200 nM Ko143): 1.35; Efflux ratio ([6]; MDCK-Bcrp1, 5 μM pazopanib, no inhibitor): 47.1; Substrate classification for Bcrp1 [6, 8]: high affinity substrate; k el (in vivo; FVB wild type, brain, iv): 0.000103 s⁻¹; Kp (in vivo; FVB wild type, brain/plasma, iv): 0.015; Vd (in vivo; FVB wild type, plasma, iv): 0.286 L/kg; clearance (in vivo; FVB wild type, plasma, iv): 2.38 mL/min/kg; k el (in vivo; FVB wild type, plasma, iv): 0.000139 s⁻¹; concentration at 15 min (in vivo; FVB, brain, intravenous): 293 ± 52 ng/g; concentration at 30 min (in vivo; FVB, brain, intravenous): 157 ± 2 ng/g; concentration at 60 min (in vivo; FVB, brain, intravenous): 95 ± 11 ng/g; half-life (in vivo; FVB, brain, iv): 1.9 h; Kp at 30 min (in vivo; FVB, brain/plasma, intravenous): 0.0113 ± 0.005; Kp at 60 min (in vivo; FVB, brain/plasma, intravenous): 0.009 ± 0.001; half-life (in vivo; FVB, plasma, iv): 1.4 h; AUC (0 → tlast) [7, 9]: 0.042 ± 0.003 mg·min/mL; λz [7, 9]: 0.25 h⁻¹; AUC (0 → tlast) [7, 10]: 0.020 ± 0.001 mg·min/mL; half-life [7, 10]: 1.89 h; AUC (0 → tlast) [7, 11]: 1.029 ± 0.071 mg·min/mL; Volume of distribution [7, 11]: 0.39822 L/kg; clearance [7, 11]: 2.49 mL/min/kg; λz ([7]; plasma, pazopanib 5 mg/kg i.v. + elacridar (GF120918) 10 mg/kg i.v. 30 min prior): 0.38 h⁻¹; AUC (0 → tlast) [7, 12]: 1.356 ± 0.043 mg·min/mL; half-life [7, 12]: 1.39 h
